A word on the ED50: it is the midpoint of the dose-response relation.

Assay [1] concerns Staphylococcus aureus 2999i^+p^+. Briefly: Antibiotic activity in vitro, agar dilution method (MIC). Particulars: DST agar. The assay is classed as cell-based. Background: In agar dilution the substance is mixed into plates at graded concentrations.
Assay [2] concerns Streptococcus pyogenes Aronson. The assay is described as above. The assay is classed as cell-based. Conditions: DST agar.
The test system of assay [3] is Escherichia coli 205. The assay is described as above. It is filed as cell-based. Particulars: DST agar.
In assay [4] the test system is Klebsiella pneumoniae 327. Described as above. It is filed as cell-based. Conditions: DST agar.
In the next assay the test system is Serratia marcescens 344. The description is as above. It is filed as cell-based. Particulars: DST agar.
For the next assay, the system named is Proteus mirabilis 774. Described as above. The assay is classed as cell-based. Particulars: DST agar.
In the next assay the test system is Proteus rettgeri 856. The description is as above. The assay is classed as cell-based. Particulars: Providencia rettgeri, DST agar.
Assay [5] deals with Pseudomonas aeruginosa ATCC 12055. The description is as above. Particulars: ATCC12055, DST agar. It is filed as cell-based.
Assay [6] concerns Clostridium perfringens 194. Briefly: microbe, parasite or virus in culture. The assay is classed as cell-based.
The subject of assay [7] is Bacteroides fragilis LO 1. Briefly: Antibiotic activity in vitro, agar dilution method (MIC). It is filed as cell-based. Particulars: LO1, DST agar.
In assay [8] the test system is Neisseria meningitidis 1316. The description is as above. The assay is classed as cell-based. Conditions: DST agar.
Assay [9] has as its system Haemophilus influenzae NCTC 4560. Described as above. The assay is classed as cell-based. Particulars: DST agar.
Assay [10] deals with Escherichia coli 205. Nature of the assay: Chemotherapeutic activity in vivo against systemic infection in mice (ED50). Particulars: s.c., systemic infection in female SPF MF2 mice. The source says: (§1) B. Die chemotherapeutische Wirksamkeit in vivo gegen systemische Infektionen in weiblichen SPF, MF2 Mäusen wurde nach der Methode von Zak., 0., et al., 1979, Drugs Exptl. Clin. Res. 5, 45-59, ermittelt. Die gefundenen ED50-Werte in Milligramm Substanz pro Kilogramm Maus (mg/kg) für eine Anzahl von Mikroorganismen werden für die subcutan (s.c.) applizierten Testverbindungen in der Tabelle 2 angegeben.

In assay [11] the test system is Staphylococcus aureus 10B. The description is as above. Particulars: systemic infection in female SPF MF2 mice.
Source text: as §1

The test system of the next assay is Proteus morganii 2359. Described as above. Conditions: Morganella morganii, sc, systemic infection in female SPF MF2 mice.
Source text: as §1

Setting [12] is: Staphylococcus aureus, read-out: MIC.
Where [13] appears, read: Escherichia coli, 205, agar dilution, read-out: MIC.
Setting [14] is: Klebsiella pneumoniae, 327, agar dilution, read-out: MIC.
[15] abbreviates: Proteus mirabilis, 774, agar dilution, read-out: MIC.
Where [16] appears, read: Haemophilus influenzae, NCTC4560, agar dilution, read-out: MIC.
[17] abbreviates: Neisseria meningitidis, 1316, agar dilution, read-out: MIC.
Where [18] appears, read: Escherichia coli, 205, sc, read-out: ED50.
The mark [19] stands for this setting: Serratia marcescens, 344, agar dilution, read-out: MIC.
The mark [20] stands for this setting: Staphylococcus aureus, 10B, sc, read-out: ED50.

Values after ≈ are worked out from the molar mass of the structure shown. Structures can show the parent of a compound that is named as a salt. Where two headings read alike, the source gives them in different places.

Take `CO/N=C(\C(=O)N[C@@H]1C(=O)N2C(C(=O)O)=C(COC(C)=O)CS[C@H]12)c1nc(N)n(C)n1` [Beispiel 2, 7β-[2-(5-Amino-1-methyl-1H-1,2,4-triazol-3-yl)-2-Z-methoxyimino-acetamino]-3-acetoxymethyl-3-cephem-4-carbonsäure-hydrochlorid]: the MIC in assay [1] (setting [12]) was 8 µg/mL; in assay [2] it was 0.5 µg/mL; with Escherichia coli 205 [3] (setting [13]), 0.1 µg/mL; in [4] (setting [14]), 0.1 µg/mL; against Serratia marcescens 344 (agar dilution) it was 1 µg/mL; in the assay with Proteus mirabilis 774 (setting [15]), 0.05 µg/mL. In addition, the MIC against Proteus rettgeri 856 is 0.01 µg/mL; in [5], 128 µg/mL; in assay [6], 0.5 µg/mL; in [7] it was 8 µg/mL; in assay [8] (agar dilution), 0,02 µg/ml; in assay [9] (setting [16]), 1 µg/mL. The ED50 in the assay with Escherichia coli 205 [10] is recorded as 1 mg/kg; in assay [11] (s.c.) it was 10 mg/kg.
Consider `CC(=O)OCC1=C(C(=O)O)N2C(=O)[C@@H](NC(=O)Cc3nc(N)n(C)n3)[C@H]2SC1` [Testverbindung 1, 7β-[2-(5-Amino-1-methyl-1H-1,2,4-triazol-3-yl)-acetamino]-3-acetoxymethyl-3-cephem-4-carbonsäure], for which the MIC was determined as 8 µg/mL (≈ 19.5 µM) in [1] (setting [12]); 1 µg/mL (≈ 2.44 µM) in assay [2]; 32 µg/mL (≈ 78 µM) with Escherichia coli 205 [3] (setting [13]); 16 µg/mL (≈ 39 µM) in assay [4] (setting [14]); 128 µg/mL (≈ 312 µM) with Proteus mirabilis 774 (setting [15]); 32 µg/mL (≈ 78 µM) against Proteus rettgeri 856. For the same molecule, the results for the MIC in assay [6], in [8] (setting [17]) and in assay [9] (setting [16]) were 16 µg/mL (≈ 39 µM), 2 µg/mL (≈ 4.87 µM) and 4 µg/mL (≈ 9.75 µM), respectively. For the same molecule, the ED50 in the assay on Escherichia coli 205 [10] (setting [18]) and with Proteus morganii 2359 was more than 30 mg/kg in each case.
With `CO/N=C(\C(=O)N[C@@H]1C(=O)N2C(C(=O)O)=C(COC(C)=O)CS[C@H]12)c1nc(N)n(C)n1` [Testverbindung 2, 7ß-[2-(5-Amino-l-methyl-lH-l,2,4-triazol-3-yl)-2-Z-methoxy-imino-acetamino]-3-acetoxymethyl-3-cephem-4-carbonsäure], the MIC in [1] (listed as 3) is 4 µg/mL (≈ 8.82 µM); in the assay with Escherichia coli 205 [3] (agar dilution, listed as 3), 0,05 µg/ml; in assay [4] (agar dilution, listed as 3), 0,05 µg/ml; with Serratia marcescens 344 (agar dilution, listed as 3), 0,1 µg/ml; against Proteus mirabilis 774 (agar dilution, listed as 3) it was 0,1 µg/ml; in assay [8] (agar dilution, listed as 3) it was 0,1 µg/ml. The MIC in assay [9] (agar dilution, listed as 3) is 0,5 µg/ml. Further, the ED50 in the assay with Escherichia coli 205 [10] (listed as 3) was 0,4 mg/kg; in the assay with Proteus morganii 2359, more than 30 mg/kg; in assay [11] (s.c., listed as 3), more than 30 mg/kg.
For `CO/N=C(\C(=O)N[C@@H]1C(=O)N2C(C(=O)O)=C(CSc3nnnn3C)CS[C@H]12)c1nc(N)n(C)n1` [Testverbindung 3, 7β-[2-(5-Amino-1-methyl-1H-1,2,4-triazol-3-yl)-2-Z-methoxyimino-acetamino]-3-(1-methyltetrazol-5-yl-thiomethyl)-3-cephem-4-carbonsäure], the MIC in assay [1] (setting [12]) was found to be 8 µg/mL (≈ 15.7 µM); in [2], 1 µg/mL (≈ 1.96 µM); with Escherichia coli 205 [3] (setting [13]), 0.2 µg/mL (≈ 0.393 µM); in assay [4] (setting [14]), 0.2 µg/mL (≈ 0.393 µM); with Serratia marcescens 344 (setting [19]), 0.5 µg/mL (≈ 0.981 µM); in the assay on Proteus mirabilis 774 (setting [15]), 0.2 µg/mL (≈ 0.393 µM). The MIC was found to be 0.1 µg/mL (≈ 0.196 µM) in the assay on Proteus rettgeri 856; 1 µg/mL (≈ 1.96 µM) in assay [5]; 0.2 µg/mL (≈ 0.393 µM) in assay [6]; 16 µg/mL (≈ 31.4 µM) in assay [7]; 0.5 µg/mL (≈ 0.981 µM) in assay [8] (setting [17]); 8 µg/mL (≈ 15.7 µM) in assay [9] (setting [16]). For the same molecule, the ED50 is 1.7 mg/kg in the assay with Escherichia coli 205 [10] (setting [18]), 50 mg/kg in the assay with Proteus morganii 2359 and 28 mg/kg in [11] (setting [20]).
For the molecule `CO/N=C(\C(=O)N[C@@H]1C(=O)N2C(C(=O)[O-])=C(C[n+]3ccc(C(N)=O)cc3)CS[C@H]12)c1nc(N)n(C)n1` [Testverbindung 4, 7β-[2-(5-Amino-1-methyl-1H-1,2,4-triazol-3-yl)-2-Z-methoxyimino-acetamino]-3-(4-carbamoylpyridiniomethyl)-3-cephem-4-carboxylat], the MIC in assay [1] (setting [12]) is 32 µg/mL (≈ 62.1 µM); in [2], 32 µg/mL (≈ 62.1 µM); with Escherichia coli 205 [3] (setting [13]), 0.1 µg/mL (≈ 0.194 µM); in assay [4] (setting [14]), 0.1 µg/mL (≈ 0.194 µM); in the assay with Serratia marcescens 344 (setting [19]) it was 0.5 µg/mL (≈ 0.97 µM); in the assay on Proteus mirabilis 774 (setting [15]) it was 0.1 µg/mL (≈ 0.194 µM). Also, the MIC with Proteus rettgeri 856 was found to be 0.02 µg/mL (≈ 0.0388 µM); in [6] it was 8 µg/mL (≈ 15.5 µM); in [7], 4 µg/mL (≈ 7.76 µM); in assay [8] (setting [17]) it was 0.5 µg/mL (≈ 0.97 µM); in [9] (setting [16]) it was 2 µg/mL (≈ 3.88 µM). For the same molecule, the ED50 in the assay with Escherichia coli 205 [10] (setting [18]) worked out at 2.5 mg/kg.
Take `CO/N=C(\C(=O)N[C@@H]1C(=O)N2C(C(=O)[O-])=C(C[n+]3ccc(C(N)=O)cc3)CS[C@H]12)c1nc(N=CN(C)C)n(C)n1` [Testverbindung 5]: the MIC stood at 8 µg/mL (≈ 14 µM) in assay [1] (setting [12]); 0.5 µg/mL (≈ 0.876 µM) in assay [2]; 32 µg/mL (≈ 56.1 µM) in the assay on Escherichia coli 205 [3] (setting [13]); 32 µg/mL (≈ 56.1 µM) in [4] (setting [14]); 128 µg/mL (≈ 224 µM) with Serratia marcescens 344 (setting [19]); 32 µg/mL (≈ 56.1 µM) in the assay with Proteus mirabilis 774 (setting [15]). Besides, the MIC was determined as 8 µg/mL (≈ 14 µM) in the assay on Proteus rettgeri 856; 128 µg/mL (≈ 224 µM) in [5]; 2 µg/mL (≈ 3.51 µM) in assay [6]; 32 µg/mL (≈ 56.1 µM) in assay [7]; 8 µg/mL (≈ 14 µM) in [8] (setting [17]); 128 µg/mL (≈ 224 µM) in assay [9] (setting [16]). Besides, the ED50 in the assay with Escherichia coli 205 [10] (setting [18]) was more than 30 mg/kg; in the assay with Proteus morganii 2359, 70 mg/kg; in assay [11] (setting [20]) it was 55 mg/kg.
